How the values were obtained:
[1] = 101 kPa, Liquid
[2] = wn = mass fraction of the nth substance listed; conditions: 101 kPa, Liquid

CCC[n+]1ccn(C)c1.[Br-] [1-methyl-3-propylimidazolium bromide]
[1]
Conditions | mass density [kg/m3] | speed of sound [m/s]
288.15 K | 1323.47 | 1699.3
293.15 K | 1319.84 | 1685
298.15 K | 1316.22 | 1672
303.15 K | 1312.6 | 1659.9
308.15 K | 1308.97 | 1648.3

CCC[n+]1ccn(C)c1.[Br-] [1-methyl-3-propylimidazolium bromide] + C[S+](C)[O-]
[2]
Conditions | mass density, 288.15 K [kg/m3] | mass density, 293.15 K [kg/m3] | mass density, 298.15 K [kg/m3] | mass density, 303.15 K [kg/m3] | mass density, 308.15 K [kg/m3] | speed of sound, 288.15 K [m/s] | speed of sound, 293.15 K [m/s] | speed of sound, 298.15 K [m/s] | speed of sound, 303.15 K [m/s] | speed of sound, 308.15 K [m/s]
w1 = 0.0077 | 1107.07 | 1102.06 | 1097.05 | 1092.04 | 1087.03 | 1520.9 | 1504.2 | 1487.3 | 1470.4 | 1453.6
w1 = 0.0102 | 1107.62 | 1102.61 | 1097.6 | 1092.6 | 1087.6 | 1521.5 | 1504.7 | 1487.8 | 1470.9 | 1454.2
w1 = 0.012 | 1108.05 | 1103.04 | 1098.04 | 1093.03 | 1088.03 | 1521.9 | 1505.2 | 1488.3 | 1471.4 | 1454.7
w1 = 0.0159 | 1108.91 | 1103.91 | 1098.91 | 1093.92 | 1088.93 | 1523 | 1506 | 1489.2 | 1472.3 | 1455.7
w1 = 0.0203 | 1109.88 | 1104.88 | 1099.89 | 1094.91 | 1089.93 | 1523.8 | 1507 | 1490.2 | 1473.4 | 1456.7
w1 = 0.0252 | 1110.97 | 1105.98 | 1100.99 | 1096.02 | 1091.04 | 1524.8 | 1507.8 | 1491 | 1474.2 | 1457.6
w1 = 0.0297 | 1111.95 | 1106.98 | 1102 | 1097.03 | 1092.07 | 1525.8 | 1509.1 | 1492.3 | 1475.5 | 1458.9
w1 = 0.0356 | 1113.27 | 1108.3 | 1103.33 | 1098.37 | 1093.42 | 1527 | 1510.4 | 1493.6 | 1476.9 | 1460.3
w1 = 0.0423 | 1114.74 | 1109.78 | 1104.82 | 1099.87 | 1094.93 | 1528.5 | 1511.6 | 1494.9 | 1478.2 | 1461.7
w1 = 0.0502 | 1116.49 | 1111.55 | 1106.6 | 1101.67 | 1096.73 | 1530.2 | 1513.5 | 1496.9 | 1480.2 | 1463.6
w1 = 0.0599 | 1118.62 | 1113.69 | 1108.76 | 1103.84 | 1098.93 | 1532.1 | 1515.3 | 1498.7 | 1482.1 | 1465.7
w1 = 1 | 1323.47 | 1319.84 | 1316.22 | 1312.6 | 1308.97 | 1699.3 | 1685 | 1672 | 1659.9 | 1648.3

CC#N [acetonitrile]
[1]
Conditions | mass density [kg/m3] | speed of sound [m/s]
288.15 K | 787.376 | 1319.1
293.15 K | 782.007 | 1299
298.15 K | 776.609 | 1278.8
303.15 K | 771.183 | 1258.5
308.15 K | 765.725 | 1238.4

CC#N [acetonitrile] + CCC[n+]1ccn(C)c1.[Br-]
[2], w2 = 0
Conditions | mass density [kg/m3] | speed of sound [m/s]
288.15 K | 787.376 | 1319.1
293.15 K | 782.007 | 1299
298.15 K | 776.609 | 1278.8
303.15 K | 771.183 | 1258.5
308.15 K | 765.725 | 1238.4

C[S+](C)[O-] [dimethyl sulfoxide]
[1]
Conditions | mass density [kg/m3] | speed of sound [m/s]
288.15 K | 1105.34 | 1519.1
293.15 K | 1100.31 | 1502.2
298.15 K | 1095.28 | 1485.2
303.15 K | 1090.25 | 1468.3
308.15 K | 1085.23 | 1451.5

C[S+](C)[O-] [dimethyl sulfoxide] + CCC[n+]1ccn(C)c1.[Br-]
[2], w2 = 0
Conditions | mass density [kg/m3] | speed of sound [m/s]
288.15 K | 1105.34 | 1519.1
293.15 K | 1100.31 | 1502.2
298.15 K | 1095.28 | 1485.2
303.15 K | 1090.25 | 1468.3
308.15 K | 1085.23 | 1451.5

CN(C)C=O [dimethylformamide]
[1]
Conditions | mass density [kg/m3] | speed of sound [m/s]
288.15 K | 953.442 | 1496.6
293.15 K | 948.685 | 1477.3
298.15 K | 943.917 | 1457.8
303.15 K | 939.142 | 1438.4
308.15 K | 934.357 | 1419

CN(C)C=O [dimethylformamide] + CCC[n+]1ccn(C)c1.[Br-]
[2], w2 = 0
Conditions | mass density [kg/m3] | speed of sound [m/s]
288.15 K | 953.442 | 1496.6
293.15 K | 948.685 | 1477.3
298.15 K | 943.917 | 1457.8
303.15 K | 939.142 | 1438.4
308.15 K | 934.357 | 1419

From the NIST ThermoML archive (doi:10.1007/s10765-009-0648-5)
